Key:
Type in all cases: in vivo
[1] = system: Setaria faberi (SETFA); experiment: Example B pre-emergence herbicidal activity, glasshouse pot test; conditions: 312 h, evaluated after 13 days, read-out: Pre-emergence activity SETFA (100=total damage to plant; 0=no damage to plant); for pest or weed control at 1000 g/ha: rate 1000 g/ha
How it was run: (§1)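 Pots, standard soil; spray at day 1 (pre) or day 8 (post); a.i. formulated in acetone/water 50:50 + 0.5% Tween 20; 24/16 °C, 14 h light, 65% RH, watered twice daily; visual rating at 13 d (0 = no damage, 100 = total damage).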

[2] = system: Alopecurus myosuroides (ALOMY); experiment: as above; conditions: 312 h, evaluated after 13 days, read-out: Pre-emergence activity ALOMY (100=total damage to plant; 0=no damage to plant); for pest or weed control at 1000 g/ha: rate 1000 g/ha
How it was run: as §1

[3] = system: Amaranthus retroflexus (AMARE); experiment: as above; conditions: 312 h, evaluated after 13 days, read-out: Pre-emergence activity AMARE (100=total damage to plant; 0=no damage to plant); for pest or weed control at 1000 g/ha: rate 1000 g/ha
How it was run: as §1

[4] = system: Echinochloa crus-galli (ECHCG); experiment: as above; conditions: 312 h, evaluated after 13 days, read-out: Pre-emergence activity ECHCG (100=total damage to plant; 0=no damage to plant); for pest or weed control at 1000 g/ha: rate 1000 g/ha
How it was run: as §1

[5] = system: Solanum nigrum (SOLNI); experiment: as above; conditions: 312 h, evaluated after 13 days, read-out: Pre-emergence activity SOLNI (100=total damage to plant; 0=no damage to plant); for pest or weed control at 1000 g/ha: rate 1000 g/ha
How it was run: as §1

[6] = system: Avena fatua (AVEFA); experiment: as above; conditions: 312 h, evaluated after 13 days, read-out: Pre-emergence activity AVEFA (100=total damage to plant; 0=no damage to plant); for pest or weed control at 1000 g/ha: rate 1000 g/ha
How it was run: as §1

[7] = system: Setaria faberi (SETFA); experiment: Example B post-emergence herbicidal activity, glasshouse pot test; conditions: 312 h, evaluated after 13 days, read-out: Post-emergence activity SETFA (100=total damage to plant; 0=no damage to plant); for pest or weed control at 1000 g/ha: rate 1000 g/ha
How it was run: as §1

[8] = system: Alopecurus myosuroides (ALOMY); experiment: as above; conditions: 312 h, evaluated after 13 days, read-out: Post-emergence activity ALOMY (100=total damage to plant; 0=no damage to plant); for pest or weed control at 1000 g/ha: rate 1000 g/ha
How it was run: as §1

[9] = system: Amaranthus retroflexus (AMARE); experiment: as above; conditions: 312 h, evaluated after 13 days, read-out: Post-emergence activity AMARE (100=total damage to plant; 0=no damage to plant); for pest or weed control at 1000 g/ha: rate 1000 g/ha
How it was run: as §1

[10] = system: Echinochloa crus-galli (ECHCG); experiment: as above; conditions: 312 h, evaluated after 13 days, read-out: Post-emergence activity ECHCG (100=total damage to plant; 0=no damage to plant); for pest or weed control at 1000 g/ha: rate 1000 g/ha
How it was run: as §1

[11] = system: Solanum nigrum (SOLNI); experiment: as above; conditions: 312 h, evaluated after 13 days, read-out: Post-emergence activity SOLNI (100=total damage to plant; 0=no damage to plant); for pest or weed control at 1000 g/ha: rate 1000 g/ha
How it was run: as §1

[12] = system: Avena fatua (AVEFA); experiment: as above; conditions: 312 h, evaluated after 13 days, read-out: Post-emergence activity AVEFA (100=total damage to plant; 0=no damage to plant); for pest or weed control at 1000 g/ha: rate 1000 g/ha
How it was run: as §1

| Compound | pest or weed control at 1000 g/ha [1] | pest or weed control at 1000 g/ha [2] | pest or weed control at 1000 g/ha [3] | pest or weed control at 1000 g/ha [4] | pest or weed control at 1000 g/ha [5] | pest or weed control at 1000 g/ha [6] | pest or weed control at 1000 g/ha [7] | pest or weed control at 1000 g/ha [8] | pest or weed control at 1000 g/ha [9] | pest or weed control at 1000 g/ha [10] | pest or weed control at 1000 g/ha [11] | pest or weed control at 1000 g/ha [12] | also measured |
| --- | --- | --- | --- | --- | --- | --- | --- | --- | --- | --- | --- | --- | --- |
| Cc1ccc(-c2ccc(Cl)cc2)cc1C1=C(O)C2(CCOCC2)OCC1=O (single isomer, unassigned) [Compound A-37] | 20% | 40% | 0% | 30% | 0% | 20% | 80% | 70% | 0% | 90% | 70% | 30% | – |
| CCc1ccc(-c2ccc(Cl)cc2Cl)cc1C1=C(O)C(C)(C)C(=O)C(C)(C)C1=O [Compound B-13] | – | – | – | – | – | – | – | – | – | – | – | – | pest or weed control at 250 g/ha ([1]; rate 250 g/ha): 20%; pest or weed control at 250 g/ha ([2]; rate 250 g/ha): 0%; pest or weed control at 250 g/ha ([3]; rate 250 g/ha): 0%; pest or weed control at 250 g/ha ([4]; rate 250 g/ha): 30%; pest or weed control at 250 g/ha ([5]; rate 250 g/ha): 0%; pest or weed control at 250 g/ha ([6]; rate 250 g/ha): 20%; pest or weed control at 250 g/ha ([7]; rate 250 g/ha): 90%; pest or weed control at 250 g/ha ([8]; rate 250 g/ha): 0%; pest or weed control at 250 g/ha ([9]; rate 250 g/ha): 20%; pest or weed control at 250 g/ha ([10]; rate 250 g/ha): 80%; pest or weed control at 250 g/ha ([11]; rate 250 g/ha): 0%; pest or weed control at 250 g/ha ([12]; rate 250 g/ha): 30% |
| CCc1ccc(-c2ccc(Cl)c(C)c2)cc1C1=C(O)C(C)(C)C(=O)C(C)(C)C1=O [Compound B-2] | 0% | 0% | 90% | 70% | 30% | 20% | 20% | 0% | 70% | 80% | 40% | 0% | – |
| Cc1ccc(-c2ccc(Cl)nc2)cc1C1=C(O)C(C)(C)OC(C)(C)C1=O [Compound A-54] | 90% | 70% | 20% | 100% | 0% | 80% | 80% | 80% | 0% | 90% | 0% | 50% | – |
| C#CCOC(=O)OC1=C(c2cc(-c3ccc(Cl)cc3)ccc2CC)C(=O)C(C)(C)OC1(C)C [Compound D-15] | 100% | 80% | 0% | 100% | 0% | 60% | 100% | 80% | 0% | 100% | 0% | 60% | – |
| Cc1ccc(-c2ccc(Cl)cc2)cc1C1=C(O)[C@@]2(C)CC[C@H](O2)C1=O (single isomer, unassigned) [Compound A-30] | 100% | 80% | 0% | 100% | 0% | 70% | 100% | 90% | 70% | 100% | 70% | 100% | – |
| CCOC(=O)OC1=C(c2cc(-c3ccc(Cl)cc3)ccc2CC)C(=O)C(C)(C)OC1(C)C [Compound D-13] | 90% | 50% | 0% | 90% | 0% | 20% | 100% | 60% | 0% | 100% | 0% | 0% | – |
| Cc1ccc(-c2cccc(C(F)(F)F)c2)cc1C1=C(O)C(C)(C)OC(C)(C)C1=O [Compound A-15] | 50% | 50% | 100% | 100% | 100% | 50% | 10% | 10% | 90% | 50% | 10% | 20% | – |
| CCc1ccc(-c2ccc(Cl)cc2)cc1C1=C(OC(=O)OCC(C)C)C(C)(C)OC(C)(C)C1=O [Compound D-14] | 90% | 50% | 0% | 60% | 0% | 20% | 100% | 20% | 0% | 100% | 0% | 10% | – |
| Cc1ccc(-c2ccc(Cl)nc2C)cc1C1=C(O)C(C)(C)OC(C)(C)C1=O [Compound A-56] | 0% | 10% | 0% | 30% | 20% | 40% | 80% | 80% | 20% | 80% | 20% | 50% | – |
| Cc1ccc(-c2ccc(Cl)cc2)cc1C1=C(O)C(C)(C)C(=O)C(C)(C)C1=O [Compound B-4] | 0% | 0% | 0% | 30% | 0% | 0% | 90% | 80% | 70% | 90% | 40% | 30% | – |
| CCc1ccc(-c2ccc(Cl)cc2)cc1C1=C(OC(=O)OC)C(C)(C)OC(C)(C)C1=O [Compound D-16] | 100% | 50% | 0% | 90% | 0% | 0% | 100% | 90% | 0% | 100% | 0% | 20% | – |
